Experimental data taken from US20240309015A1, “Methods for the Treatment of Fibrotic Disease” (SHY Therapeutics, LLC, priority 2021, published 2024).

Tests used:
IL-6 = assay: Mouse IL6 Quantification Assay (LPS-stimulated RAW 264.7); format: cell-based; set-up: dose or concentration left out as unconfirmed; conditions: RAW264.7, ELISA, read-out: IL-6: % inh.
Smad2/3 phosphorylation = assay: Phospho-Smad2/3 Inhibition Assay in PANC-1; format: cell-based; conditions: Homo sapiens; 10 μM compound, 3 h; TGF-b1 stimulated PANC-1; western blot; read-out: % inh of Smad2/3 phosphorylation in PANC-1
Method: Cell lines: Human tumor-derived pancreatic cancer cell line Panc-1 and mouse muscle myoblast C2C12 were purchased from American Type Culture Collection and grown in complete DMEM-High Glucose, supplemented with penicillin (100 U/mL), streptomycin (100 μg/mL), and 10% heat-inactivated FBS at 37° C. in a humidified incubator with 5% CO2.
Method: Cells were plated at 350000 cells/well density in a 12-well plate, allowed 3 hours to adhere to the plate, then starved in the appropriate medium in the presence of 0.5% FBS overnight. The small molecules to be tested were added to the cells in the final concentration of 10 μM in the presence of 0.3% DMSO for 3 hours incubation at 37° C. For IC50 value determination, serial dilutions of compounds were added to cells under the same conditions. Next, Panc-1 cells were stimulated with 10 ng/ml TGF-b1 for 1 hour, and C2C12 cells were stimulated with 10 ng/ml TGF-b1 for 20 minutes (recombinant human TGF-b1, R&D Systems). After stimulation cells were lysed with lysis buffer containing 1% Triton X-100, EDTA, and Halt™ Protease & Phosphatase Inhibitor Cocktail (Thermo Scientific). Protein concentration was assessed by BCA protein assay (Thermo Scientific). Phosphorylation level of Smad2/Smad3 was determined by western blot.
Western blot protocol: Equal amounts of protein (15-50 μg) were separated by SDS-PAGE and transferred to nitrocellulose membranes (Invitrogen by Thermo Fisher Scientific). The membrane was stained with Ponceau S Stain (Boston BioProducts) to verify uniform protein loading. Membranes were blocked with 10% milk and phosphorylation levels of Smad2/Smad3 were assessed by incubating overnight at 4° C. with the following antibodies: Phospho-Smad2 (Ser465/467) and Phosph-Smad3 (Ser423/425), both from Cell Signaling Technology. Then the membranes were incubated with HRP-conjugated secondary antibody (Jackson Immunoresearch, West Grove, PA). Bands were incubated in Amersham ECL Prime Western Blotting Detection Reagent (GE Healthcare) and visualized using the ChemiDoc MP imaging system (Bio-Rad).

KRas G12C mutant = assay: Ras GTP Binding Domain Inhibition Assay, KRas G12C mutant; conditions: at 20 μM; for KRas G12C mutant + SOS: % inh.: with SOS; for KRas G12C mutant: % inh.: without SOS
Method: (§1) A Ras Superfamily Activity Assay (as disclosed in International Application No. PCT/US2018/038613, filed Jun. 20, 2018, which is incorporated by reference in its entirety) was used as a specific assay to evaluate compounds against the following for the following Ras Superfamily proteins: KRas wild type, KRas Q61H mutant, KRas G12C mutant, KRas G12D mutant, Rac-1, and Rho-A.
(§2) Buffer-I: • 25 mM Tris-HCl, pH 7.4 • 27 mM KCl • 137 mM NaCl • 1 mM MgCl2 • 1 mM DTT
(§3) Buffer-IL: • 50 mM Tris-HCl, pH 7.0 • 1 mM MgCl2 • 1 mM DTT
(§4) The small GTPases proteins: KRas wild type. KRas Q61H mutant, KRas G12C mutant, KRas G12D mutants, Rac-1, and Rho-A were expressed as His-tagged proteins. In addition, the Guanosine nucleotide Exchange Factor (GEF) Sos protein (residues 556-1049) was expressed as a His-tagged protein. In cells, the guanine nucleotide exchange factor Sos protein promotes activation of Ras proteins by stimulating an exchange of GDP for GTP. The inclusion of Sos to the Ras GTP binding domain inhibition assay may be considered as an alternative representation of physiological cellular conditions for evaluating the inhibitory activity of some of the tested small molecules.
(§5) For the assay, all purified small GTPases proteins were diluted in Buffer-I or Buffer-II to a final concentration of 10-30 μg/mL. 200 μL of each diluted protein was added to a nickel-coated 96-well plate and incubated overnight at 4° C. Then the protein solution was discarded and 200 μL of Buffer-I or Buffer-II was added to each well in the presence of 1% DMSO. Compounds to be tested were added to the protein-coated wells at final concentration of 20 μM, and incubated for 3 hours at room temperature with and without 10-30 μg/mL of Sos added to the final hour of the incubation. When performing IC50 measurements a serial dilution of all tested concentrations was added. Then Cy3-GTP or Cy5-GTP was added to each well to a final concentration of 100 nM. The labeled GTP was incubated for 45 minutes at room temperature. Following GTP incubation, wells were washed 3× in Buffer-I or Buffer-II and 200 μL of Buffer-I or Buffer-II was added to each well. Following washes, the amount of bound labeled-GTP was measured using a SpectraMax M3 (Molecular Devices).

KRas G12D mutant = assay: Ras GTP Binding Domain Inhibition Assay, KRas G12D mutant; conditions: at 20 μM; for KRas G12D mutant + SOS: % inh.: with SOS; for KRas G12D mutant: % inh.: without SOS
Method: as §1, §2, §3, §4, §5

Rho-A = assay: Ras GTP Binding Domain Inhibition Assay, Rho-A; conditions: at 20 μM; without SOS
Method: as §1, §2, §3, §4, §5

KRas wild type = assay: Ras GTP Binding Domain Inhibition Assay, KRas wild type; conditions: at 20 μM; for KRas wild type + SOS: % inh.: with SOS; for KRas wild type: % inh.: without SOS
Method: as §1, §2, §3, §4, §5

TNFα = assay: Mouse TNF Alpha Quantification Assay (LPS-stimulated RAW 264.7); format: cell-based; set-up: dose or concentration left out as unconfirmed; conditions: RAW264.7, ELISA, read-out: TNFα: % inh.

SMILES	KRas G12C mutant + SOS: % inh. (KRas G12C mutant)	KRas G12C mutant: % inh. (KRas G12C mutant)	KRas G12D mutant + SOS: % inh. (KRas G12D mutant; Table 7)	KRas G12D mutant + SOS: % inh. (KRas G12D mutant; Table 8)	KRas G12D mutant: % inh. (KRas G12D mutant; Table 7)	KRas G12D mutant: % inh. (KRas G12D mutant; Table 8)	Rho-A: % inh. (Rho-A)	KRas wild type + SOS: % inh. (KRas wild type)	KRas wild type: % inh. (KRas wild type)	inhibition (IL-6) [%]	inhibition at 10 µM (Smad2/3 phosphorylation) [%]	inhibition (TNFα) [%]
COc1cc(-c2sc3nc(-c4nccn4C)nc(N[C@H]4C[C@H](OC)C4)c3c2-c2ccccc2)ccn1 [Compound 46, N-((1r,3r)-3-Methoxycyclobutyl)-6-(2-methoxypyridin-4-yl)-2-(1-methyl-1H-imidazol-2-yl)-5-phenylthieno[2,3-d]pyrimidin-4-amine]	D (D = 76-100% inhibition)	B (B = 26-45% inhibition)	C (C = 46-75% inhibition)	C (C = 46-75% inhibition)	C (C = 46-75% inhibition)	C (C = 46-75% inhibition)	C (C = 46-75% inhibition)	D (D = 76-100% inhibition)	C (C = 46-75% inhibition)		76 to 100	
COc1nccc(-c2sc3nc(-c4nccn4C)nc(N[C@H]4C[C@H](OC)C4)c3c2-c2ccccc2)c1F [Compound 45, 6-(3-Fluoro-2-methoxypyridin-4-yl)-N-((1r,3r)-3-methoxycyclobutyl)-2-(1-methyl-1H-imidazol-2-yl)-5-phenylthieno[2,3-d]pyrimidin-4-amine]	D (D = 76-100% inhibition)	B (B = 26-45% inhibition)	C (C = 46-75% inhibition)	C (C = 46-75% inhibition)	C (C = 46-75% inhibition)	C (C = 46-75% inhibition)	C (C = 46-75% inhibition)	D (D = 76-100% inhibition)	C (C = 46-75% inhibition)		76 to 100	
COCCn1ccc(-c2sc3nc(-c4nccn4C)nc(N[C@@H]4CC[C@H](OC)C4)c3c2C)n1 (racemic) [Compound 39, rac-N-((1R,3S)-3-Methoxycyclopentyl)-6-(1-(2-methoxyethyl)-1H-pyrazol-3-yl)-5-methyl-2-(1-methyl-1H-imidazol-2-yl)thieno[2,3-d]pyrimidin-4-amine]	D (D = 76-100% inhibition)	D (D = 76-100% inhibition)	D (D = 76-100% inhibition)	D (D = 76-100% inhibition)	C (C = 46-75% inhibition)	C (C = 46-75% inhibition)	C (C = 46-75% inhibition)	D (D = 76-100% inhibition)	D (D = 76-100% inhibition)	26 to 45		0

Second part, led by results:

KRas G12C mutant + SOS: % inh. (KRas G12C mutant)	KRas G12C mutant: % inh. (KRas G12C mutant)	KRas G12D mutant + SOS: % inh. (KRas G12D mutant; Table 7)	KRas G12D mutant + SOS: % inh. (KRas G12D mutant; Table 8)	KRas G12D mutant: % inh. (KRas G12D mutant; Table 7)	KRas G12D mutant: % inh. (KRas G12D mutant; Table 8)	Rho-A: % inh. (Rho-A)	KRas wild type + SOS: % inh. (KRas wild type)	KRas wild type: % inh. (KRas wild type)	SMILES	inhibition (IL-6) [%]	inhibition at 10 µM (Smad2/3 phosphorylation) [%]	inhibition (TNFα) [%]
A (A = 1-25% inhibition)	0 (0 = 0% inhibition)	0 (0 = 0% inhibition)	0 (0 = 0% inhibition)	0 (0 = 0% inhibition)	0 (0 = 0% inhibition)	0 (0 = 0% inhibition)	A (A = 1-25% inhibition)	A (A = 1-25% inhibition)	COCCCn1c(-c2nccn2C)nc2sc(-c3ccn(C(C)C)n3)c(-c3ccccc3)c2c1=O [Compound 36, 6-(1-Isopropyl-1H-pyrazol-3-yl)-3-(3-methoxypropyl)-2-(1-methyl-1H-imidazol-2-yl)-5-phenylthieno[2,3-d]pyrimidin-4(3H)-one]	46 to 75	0	0
D (D = 76-100% inhibition)	B (B = 26-45% inhibition)	C (C = 46-75% inhibition)	C (C = 46-75% inhibition)	D (D = 76-100% inhibition)	D (D = 76-100% inhibition)	0 (0 = 0% inhibition)	D (D = 76-100% inhibition)	C (C = 46-75% inhibition)	COc1cc(-c2sc3nc(-c4nccn4C)nc(N[C@@H]4CC[C@H](OC)C4)c3c2-c2ccccc2)ccn1 (racemic) [Compound 44, rac-N-((1R,3S)-3-Methoxycyclopentyl)-6-(2-methoxypyridin-4-yl)-2-(1-methyl-1H-imidazol-2-yl)-5-phenylthieno[2,3-d]pyrimidin-4-amine]		76 to 100	
D (D = 76-100% inhibition)	B (B = 26-45% inhibition)					B (B = 26-45% inhibition)	D (D = 76-100% inhibition)	0 (0 = 0% inhibition)	COC1CCCN(c2nc(-c3nccn3C)nc3sc(-c4ccn(C(C)C)n4)c(C)c23)C1 (racemic) [Compound 14, rac-6-(1-Isopropyl-1H-pyrazol-3-yl)-4-(3-methoxypiperidin-1-yl)-5-methyl-2-(1-methyl-1H-imidazol-2-yl)thieno[2,3-d]pyrimidine]	76 to 100	46 to 75	26 to 45
D (D = 76-100% inhibition)	C (C = 46-75% inhibition)	D (D = 76-100% inhibition)	D (D = 76-100% inhibition)	C (C = 46-75% inhibition)	C (C = 46-75% inhibition)	C (C = 46-75% inhibition)	D (D = 76-100% inhibition)	D (D = 76-100% inhibition)	COc1cc(-c2sc3nc(-c4nccn4C)nc(N[C@@H]4CC[C@@H](OC)C4)c3c2-c2ccccc2)ccn1 (racemic) [Compound 47, N-((1R,3R)-3-Methoxycyclopentyl)-6-(2-methoxypyridin-4-yl)-2-(1-methyl-1H-imidazol-2-yl)-5-phenylthieno[2,3-d]pyrimidin-4-amine]		76 to 100	
